Results taken from US20240342242A1, “COMPOSITIONS AND METHODS FOR TREATING MASTITIS” (Zoetis Services LLC, priority 2021, published 2024).

Assays:
[1] = test system: primary bovine mammary epithelial cells (pMEC); experiment: Cytokine production in primary bovine mammary epithelial cells, unstimulated or LPS/MPLA (TLR 4 agonist) stimulated; type: cell-based
Description: Chicken CATH2 is a host defense peptide that is naturally expressed in chicken heterophils and several tissues. […] LPS and MPLA serve as potent Toll-like Receptor 4 (TLR 4) agonists in this assay and induce high levels of proinflammatory cytokines such as interleukin 6 (IL-6) and tumor necrosis factor alpha (TNFα).

[2] = test system: Escherichia coli; experiment: E. coli intramammary challenge in lactating dairy cows, CATH2 and analogs, Example 2; type: in vivo, Holstein cows
Description: The objective of this study was to evaluate the efficacy of Cathelicidin-2 peptide analogs for reduction of incidence of clinical mastitis and severity of infection following Escherichia coli intramammary (IMM) infusion in lactating dairy cows. Healthy Holstein cows in their second or third lactation were selected based on culture negative results for mastitis pathogens and low somatic cell counts≤200,000. Enrolled animals were randomly assigned to treatment. Cows were commingled, housed and fed according to standard site procedures, and fitted with sensors to monitor activity. Cows were milked twice daily at regular intervals. The assigned treatment was administered following am and pm milkings starting 2 days prior to challenge. Four total treatments and the challenge were administered in the left front quarter. Treatment was administered twice daily for 2 days prior to challenge. The E. coli challenge material was administered to the treated quarter on the morning of Day 0 of study. The treatment regimen was designed to evaluate efficacy for prevention of the disease. All peptides were dosed at 50 mg/10 mL per dose. Milk samples were collected for analysis at 6-hour intervals on Day 0, and at each morning's milking from Day 1 through Day 7, and on Days 11 and 14.

[3] = Dry off therapy: transcriptomics of udder secretions in healthy dry cows, Example 5; type: in vivo, Holstein cattle; settings: 400 mg/10 mL, 1-day post administration
Method: In an additional study, pregnant multiparous Holstein cattle were treated with a single dose of CATH2 at approximately 60 days prior to expected calving dates for this group of animals by intramammary infusion following milking. These animals were considered to be entering the so-called dry period in which animals are no longer milked until post-partition. The objective of this study was to understand the immunomodulatory activity of varying doses of CATH2 administered by intramammary infusion in healthy multiparous cows at dry off.
Udder secretion samples were collected 1, 2, and 7 days post administration. Samples were also collected from the neighboring Right Rear quarter as an untreated in animal control of varying immunological responses. The samples were processed for transcriptomics analysis to determine the healthy animal response to treatment alone.

Sequence: RFGRFLRKIRRFRPKVTITIQ [CATH2, truncated 1-21 amino acid L-form of chicken cathelicidin 2 peptide]
- proinflammatory cytokines (IL-6, TNFα) upon LPS or MPLA stimulation ([1]; LPS or MPLA (TLR 4 agonist) stimulation, FIG. 1): dose-dependent inhibition of proinflammatory cytokines
- proinflammatory cytokines in healthy unstimulated bovine mammary epithelial cells ([1]; varying concentrations of the peptide, unstimulated): minor increase in proinflammatory cytokines
- overall protection against mastitis following IMM challenge with E. coli ([2]; 50 mg/10 mL): best protection against mastitis
- intramammary infection observed ([2]; 50 mg/10 mL, 4 treatments prior to challenge, vehicle 100%): 52.94%
- animals meeting criteria for clinical mastitis ([2]; 50 mg/10 mL, 4 treatments twice daily for 2 days prior to challenge, vehicle 100.0%, FIG. 9): 47.06%
- cows with normal challenged quarter ([2]; Day 6, vehicle 0%): 41.48%
- milk concentrations of BSA, milk haptoglobin, milk amyloid A, IL-1 beta, IL-6, IL-8, IL-10 and TNFα ([2]; FIGS. 13-20): lowest
- cows demonstrating fever ([2]; vehicle 80.0%, FIG. 12): 41.2%
- duration of fever ([2]; vehicle 5.5 h): 2.4 h
- peak E. coli counts from the challenged quarter ([2]; vehicle >4.0): < 1.5 log10 CFU/mL
- bacterial load post challenge ([2]; vs vehicle control, FIG. 10): greatest reduction in the bacterial load
- BSA level in the milk ([2]; vs vehicle control, FIG. 13): lowest level of BSA in the milk
- gene expression in udder secretions [3]: increased expression of: CCL24, CXCL2, IL1RAP, CXCR1, and CXCR2
